Data from patent publication US6780869B1, “Pyrimidine derivatives” (SmithKline Beecham Corporation, priority 1999, dated 2004).

Columns and labels:
microsomal h-COX2 = biological target: T1, microsomal h-COX2 (Homo sapiens, UniProt P35354); test: Microsomal assay, microsomal preparation from baculovirus infected SF9 cells, PGE2 by EIA; assay type: biochemical; conditions: 0.1 μM arachidonic acid, read-out: COX-2: IC50
T1 construct: made in house; host or cells: baculovirus infected SF9 cells (microsomal preparation)
T1 sequence (P35354 18-604): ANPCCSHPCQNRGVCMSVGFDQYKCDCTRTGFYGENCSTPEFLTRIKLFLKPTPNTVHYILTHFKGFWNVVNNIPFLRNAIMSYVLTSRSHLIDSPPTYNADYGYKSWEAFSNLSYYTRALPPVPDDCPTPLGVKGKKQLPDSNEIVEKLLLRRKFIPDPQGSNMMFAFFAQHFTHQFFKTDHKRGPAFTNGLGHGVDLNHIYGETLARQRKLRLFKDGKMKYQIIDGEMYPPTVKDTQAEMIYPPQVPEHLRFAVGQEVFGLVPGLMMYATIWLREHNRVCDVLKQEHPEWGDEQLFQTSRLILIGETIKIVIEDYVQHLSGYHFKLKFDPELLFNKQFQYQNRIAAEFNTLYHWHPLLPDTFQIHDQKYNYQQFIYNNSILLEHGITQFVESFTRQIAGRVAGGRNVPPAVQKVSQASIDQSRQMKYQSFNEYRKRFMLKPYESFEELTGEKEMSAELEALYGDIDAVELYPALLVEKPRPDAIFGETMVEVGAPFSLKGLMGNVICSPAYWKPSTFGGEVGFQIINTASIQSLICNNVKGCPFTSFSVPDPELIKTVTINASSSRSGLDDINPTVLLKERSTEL
Method: Inhibitory activity against microsomal h-COX2 was assessed against a microsomal preparation from baculovirus infected SF9 cells. An aliquot of microsomal preparation was thawed slowly on ice and a 1/40,000 dilution prepared from it into the assay buffer (sterile water, degassed with argon containing 100 mM HEPES (pH 7.4), 10 mM EDTA (pH7.4), 1 mM phenol, 1 mM reduced glutathione, 20 mg/ml gelatin and 0.001 mM Hematin). Once diluted the enzyme solution was then sonicated for 5 seconds (Branson sonicator, setting 4, 1 cm tip) to ensure a homogeneous suspension. 155 μl enzyme solution was then added to each well of a 96-well microtitre plate containing either 5 μl test compound (40× required test concentration) or 5 μl DMSO for controls. Plates were then mixed and incubated at room temperature for 1 hour. Following the incubation period, 40 μl of 0.5 μM arachidonic acid was added to each well to give a final concentration of 0.1 μM. Plates were then mixed and incubated for exactly 10 minutes (room temperature) prior to addition of 25 μl 1M HCl (hydrochloric acid) to each well to stop the reaction. 25 μl of 1M NaOH (sodium hydroxide) was then added to each well to neutralise the solution prior to determination of PGE2 levels by enzyme immunoassay (EIA).

human COX-2 = biological target: T2, human COX-2 (Homo sapiens, UniProt P35354); test: Cell based assay, COS cells stably transfected with human COX-2, PGE2 release; conditions: inhibition of PGE2 release, 30 μM arachidonic acid
T2 construct: expressed in transfected cells; host or cells: COS cells (stably transfected)
T2 sequence (P35354 18-604): T1 sequence (P35354 18-604)
Method: 24 Hours prior to experiment, COS cells were transferred from the 175 cm^2 flasks in which they were grown, onto 24-well cell culture plates using the following procedure. The incubation medium (Dulbecco's modified eagles medium (DMEM) supplemented with heat-inactivated foetal calf serum (10% v/v), penicillin (100 IU/ml), streptomycin (100 μg/ml) and geneticin (600 μg/ml)) was removed from a flask of confluent cells (1 flask at confluency contains approximately 1×10^7 cells). 5 ml of phosphate buffered saline (PBS) was added to the flask to wash the cells. […] The flask was then removed from the incubator and 5 ml of fresh incubation medium was added. The contents of the flask was transferred to a 250 ml sterile container and the volume of incubation medium subsequently made up to 100 ml. 1 ml cell suspension was pipetted into each well of 4×24-well cell culture plates. The plates were then placed in an incubator (37° C., 95% air/5% CO2) overnight. If more than 1 flask of cells were required, the cells from the individual flasks were combined before being dispensed into the 24-well plates.
Following the overnight incubation, the incubation medium was completely removed from the 24-well cell culture plates and replaced with 250 μl fresh DMEM (37° C.). The test compounds were made up to 250× the required test concentration in DMSO and were added to the wells in a volume of 1 μl. Plates were then mixed gently by swirling and then placed in an incubator for 1 hour (37° C., 95% air/5% CO2). […] Plates were then incubated for a further 10 minutes, after which the incubation medium was removed from each well of the plates and stored at −20° C., prior to determination of prostaglandin E2 (PGE2) levels using enzyme immunoassay. […] The selectivity ratio of inhibition of COX-1 versus COX-2 was calculated by comparing respective IC50 values.

COX-1 [1] = biological target: T3, COX-1 (Homo sapiens, UniProt P23219); test: Microsomal assay, COX-1; assay type: biochemical
T3 sequence (P23219 24-599): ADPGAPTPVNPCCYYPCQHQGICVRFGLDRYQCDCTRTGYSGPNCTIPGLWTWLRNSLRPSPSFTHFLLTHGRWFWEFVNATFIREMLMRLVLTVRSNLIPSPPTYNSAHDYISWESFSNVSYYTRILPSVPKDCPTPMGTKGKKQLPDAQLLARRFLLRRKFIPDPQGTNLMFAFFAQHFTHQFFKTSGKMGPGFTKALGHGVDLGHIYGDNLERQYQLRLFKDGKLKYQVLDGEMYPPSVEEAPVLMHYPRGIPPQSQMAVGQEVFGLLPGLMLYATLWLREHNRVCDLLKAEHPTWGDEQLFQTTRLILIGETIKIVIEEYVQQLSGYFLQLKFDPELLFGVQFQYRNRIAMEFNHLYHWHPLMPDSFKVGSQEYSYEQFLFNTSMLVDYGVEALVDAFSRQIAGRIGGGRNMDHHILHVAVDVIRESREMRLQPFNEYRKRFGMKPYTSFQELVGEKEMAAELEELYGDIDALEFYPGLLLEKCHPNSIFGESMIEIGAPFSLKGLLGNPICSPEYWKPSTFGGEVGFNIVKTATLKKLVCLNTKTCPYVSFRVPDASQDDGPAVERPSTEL

COX-1 [2] = biological target: T3, COX-1; test: Cell based assay, COS cells stably transfected with human COX-1, PGE2 release; parameters: expressed in transfected cells; host or cells: COS cells (stably transfected); conditions: inhibition of PGE2 release, 30 μM arachidonic acid
Method: Inhibitory activity against human COX-1 and COX-2 was assessed in COS cells which had been stably transfected with EDNA for human COX-1 and human COX-2. 24 Hours prior to experiment, COS cells were transferred from the 175 cm^2 flasks in which they were grown, onto 24-well cell culture plates using the following procedure. The incubation medium (Dulbecco's modified eagles medium (DMEM) supplemented with heat-inactivated foetal calf serum (10% v/v), penicillin (100 IU/ml), streptomycin (100 μg/ml) and geneticin (600 μg/ml)) was removed from a flask of confluent cells (1 flask at confluency contains approximately 1×10^7 cells). 5 ml of phosphate buffered saline (PBS) was added to the flask to wash the cells. Having discarded the PBS, cells were then incubated with 5 ml trypsin for 5 minutes in an incubator (37°). The flask was then removed from the incubator and 5 ml of fresh incubation medium was added. The contents of the flask was transferred to a 250 ml sterile container and the volume of incubation medium subsequently made up to 100 ml. 1 ml cell suspension was pipetted into each well of 4×24-well cell culture plates. The plates were then placed in an incubator (37° C., 95% air/5% CO2) overnight. If more than 1 flask of cells were required, the cells from the individual flasks were combined before being dispensed into the 24-well plates.
Following the overnight incubation, the incubation medium was completely removed from the 24-well cell culture plates and replaced with 250 μl fresh DMEM (37° C.). The test compounds were made up to 250× the required test concentration in DMSO and were added to the wells in a volume of 1 μl. Plates were then mixed gently by swirling and then placed in an incubator for 1 hour (37° C., 95% air/5% CO2). Following the incubation period, 10 μl of arachidonic acid (750 μM) was added to each well to give a final arachidonic acid concentration of 30 μM. […] The selectivity ratio of inhibition of COX-1 versus COX-2 was calculated by comparing respective IC50 values.

| IC50 (microsomal h-COX2) [nM] | IC50 (human COX-2) [nM] | IC50 (COX-1 [1]) [nM] | IC50 (COX-1 [2]) [nM] | SMILES |
| --- | --- | --- | --- | --- |
| 12 | 2 | > 100000 | > 66000 | CC(C)CNc1nc(-c2ccc(S(C)(=O)=O)cc2)cc(C(F)(F)F)n1 [Example 8, N-isobutyl-4-[4-(methylsulfonyl)phenyl]-6-(trifluoromethyl)pyrimidin-2-amine] |
| < 1 | – | > 100000 | – | CS(=O)(=O)c1ccc(-c2cc(C(F)(F)F)nc(NCC3CCC3)n2)cc1 [Example 31, N-(cyclobutylmethyl)-4-[4-(methylsulfonyl)phenyl]-6-(trifluoromethyl)pyrimidin-2-amine] |
| – | 0.5 | – | > 58400 | CS(=O)(=O)c1ccc(-c2cc(C(F)(F)F)nc(NC3CCCCC3)n2)cc1 [Example 2, N-cyclohexyl-4-[4-(methylsulfonyl)phenyl]-6-(trifluoromethyl)pyrimidin-2-amine] |
| – | 0.1 | – | > 24600 | CS(=O)(=O)c1ccc(-c2cc(C(F)(F)F)nc(NC3CCCC3)n2)cc1 [Example 1, N-cyclopentyl-4-[4-(methylsulfonyl)phenyl]-6-(trifluoromethyl)pyrimidin-2-amine] |
